The values that follow come from patent US8309721B2, “HSP90 inhibitory carbazole derivatives, compositions containing same and use thereof” (Sanofi, priority 2008, dated 2012).

Structures can show the parent of a compound that is named as a salt. Some results are limits rather than exact numbers.

Assay [1] concerns the target Hsp82 (Saccharomyces cerevisiae, UniProt P02829). The assay can be described thus: Hsp82/ATPase test (malachite green or PK/LDH coupled method). Type of assay: biochemical. The note with it: 1 μM Hsp82, 250 μM ATP, 37° C.; read-out: Hsp82 ATPase IC50. As for the experimental part:
The biochemical activity of the compounds can in particular be evaluated by means of the “Hsp82/ATPase” test described below: The inorganic phosphate released during the hydrolysis of ATP by the ATPase activity of Hsp82 is quantified by the malachite green method. In the presence of this reagent, formation of the inorganic phosphate-molybdate-malachite green complex, which absorbs at a wavelength of 620 nm, occurs. The products to be evaluated are incubated in a reaction volume of 30 μl, in the presence of 1 μM Hsp82 and of 250 μM of substrate (ATP) in a buffer composed of 50 mM Hepes-NaOH (pH 7.5), 1 mM DTT, 5 mM MgCl2 and 50 mM KCl at 37° C. for 60 min. In parallel, an inorganic phosphate range of between 1 and 40 μM is made up in the same buffer. […] After incubation at ambient temperature for 20 min, the absorbance of the various wells is measured using a microplate reader at 620 nm. The inorganic phosphate concentration of each sample is then calculated from the standard curve. The ATPase activity of Hsp82 is expressed as concentration of inorganic phosphate produced in 60 minutes. The effect of the various products tested is expressed as percentage inhibition of the ATPase activity. The formation of ADP due to the ATPase activity of Hsp82 was used to develop another method for evaluating the enzyme activity of this enzyme by application of an enzymatic coupling system involving pyruvate kinase (PK) and lactate dehydrogenase (LDH). In this kinetic-type spectrophotometric method, PK catalyses the formation of ATP and of pyruvate from phosphoenol pyruvate (PEP) and the ADP produced by Hsp82. The pyruvate formed, which is a substrate for LDH, is subsequently converted to lactate in the presence of NADH. In this case, the decrease in the NADH concentration, measured through the decrease in absorbance at the wavelength of 340 nm, is proportional to the concentration of ADP produced by Hsp82. The products tested are incubated in a reaction volume of 100 μl of buffer composed of 100 mM Hepes-NaOH (pH 7.5), 5 mM MgCl2, 1 mM DTT, 150 mM KCl, 0.3 mM NADH, 2.5 mM PEP and 250 μM ATP. This mixture is preincubated at 37° C. for 30 minutes before the addition of 3.77 units of LDH and 3.77 units of PK. The reaction is initiated by addition of the product to be evaluated, in varying concentrations, and of Hsp82, at the concentration of 1 μM. The enzymatic activity of Hsp82 is then measured continuously, in a microplate reader, at 37° C., at the wavelength of 340 nm. The initial rate of the reaction is obtained by measuring the slope of the tangent to the origin of the curve recorded. The enzymatic activity is expressed in μM of ADP formed per minute. The effect of the various products tested is expressed as percentage inhibition of the ATPase activity according to the codification below: […]

Assay [2] has as its system Her2 receptor expression at the surface of SKBr3 cells. The assay can be described thus: phenotypic SKBr3/HER2 cell test (Her2 surface expression by flow cytometry). Format: cell-based. Conditions: Homo sapiens, SK-BR-3, 24 h incubation, inhibition of Her2 expression. An outline of the steps: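 SKBr3 cells (Her2-overexpressing adenocarcinoma) treated 24 h with compound at varying concentrations, then stained with PE-anti-Her2 antibody 30 min at 4° C; surface Her2 measured by flow cytometry. IC50 from nonlinear fit of % inhibition of Her2 expression versus concentration.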
A general note: In flow cytometry, cells or beads pass a laser one at a time.

Chain of Hsp82 (P02829 whole entry): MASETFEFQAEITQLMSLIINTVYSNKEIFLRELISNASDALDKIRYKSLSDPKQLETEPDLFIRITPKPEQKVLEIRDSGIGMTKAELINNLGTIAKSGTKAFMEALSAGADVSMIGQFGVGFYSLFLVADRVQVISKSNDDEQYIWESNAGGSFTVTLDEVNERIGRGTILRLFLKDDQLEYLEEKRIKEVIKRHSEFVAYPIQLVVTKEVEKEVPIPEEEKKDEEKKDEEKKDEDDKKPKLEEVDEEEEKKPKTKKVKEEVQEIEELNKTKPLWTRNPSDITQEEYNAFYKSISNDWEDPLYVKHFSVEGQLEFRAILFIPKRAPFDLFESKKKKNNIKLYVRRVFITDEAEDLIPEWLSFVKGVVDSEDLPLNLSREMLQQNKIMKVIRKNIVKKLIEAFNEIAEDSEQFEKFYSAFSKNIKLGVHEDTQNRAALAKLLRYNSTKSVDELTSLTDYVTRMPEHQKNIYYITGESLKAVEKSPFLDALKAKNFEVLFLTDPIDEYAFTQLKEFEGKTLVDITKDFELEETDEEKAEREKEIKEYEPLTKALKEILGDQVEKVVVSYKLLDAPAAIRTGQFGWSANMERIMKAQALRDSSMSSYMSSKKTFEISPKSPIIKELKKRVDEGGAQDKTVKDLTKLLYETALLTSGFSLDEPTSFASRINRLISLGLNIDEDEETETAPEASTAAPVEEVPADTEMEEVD

A word on the IC50: it is the midpoint of a concentration-inhibition curve. With `CC(C)(C)OC(=O)CC(=O)O[C@H]1CC[C@H](Nc2cc(-n3c4ccccc4c4c(-c5nc6ccc(F)cc6[nH]5)cccc43)ccc2C(N)=O)CC1` [Example 15, tert-butyl and 4-{2-carbamoyl-5-[4-(6-fluoro-1H-benzimidazol-2-yl)-9H-carbazol-9-yl]phenylamino}cyclohexyl ester of malonic acid], the 50% inhibitory concentration (IC50) in assay [1] is 1000 to 10000 nM; in assay [2] it was less than 1000 nM.

On to `Nc1nn(CCO)c2cc(-n3c4ccccc4c4c(-c5nc6ccc(F)cc6[nH]5)cccc43)ccc12` [Example 16, 2-{3-amino-6-[4-(6-fluoro-1H-benzimidazol-2-yl)-9H-carbazol-9-yl]indazol-1-yl}ethanol], for which the concentration for half-maximal inhibition (IC50) in assay [1] and in assay [2] was 1000 to 10000 nM in each case.

Take `CC(=O)NCCNc1cc(-n2c3ccccc3c3c(-c4nc5ccc(F)cc5[nH]4)cccc32)ccc1C(N)=O` [Example 17, 2-(2-acetylaminoethylamino)-4-[4-(6-fluoro-1H-benzimidazol-2-yl)-9H-carbazol-9-yl]benzamide]: the 50% inhibitory concentration (IC50) in assay [1] and in assay [2] was less than 1000 nM in each case.

As for `NCCNc1cc(-n2c3ccccc3c3c(-c4nc5ccc(F)cc5[nH]4)cccc32)ccc1C(N)=O` [Example 18, 2-(2-aminoethylamino)-4-[4-(6-fluoro-1H-benzimidazol-2-yl)-9H-carbazol-9-yl]benzamide], the IC50 in assay [1] is less than 1000 nM; in assay [2], 1000 to 10000 nM.

Regarding `NC(=O)c1ccc(-n2c3ccccc3c3c(-c4nc5ccc(F)cc5[nH]4)cccc32)nc1` [Example 19, 6-[4-(6-fluoro-1H-benzimidazol-2-yl)carbazol-9-yl]nicotinamide], the IC50 in assay [1] and in assay [2] was 1000 to 10000 nM in each case.

Regarding `NC(=O)c1ccc(-n2c3ccccc3c3c(-c4ccc(N)nc4)cccc32)cc1N[C@H]1CC[C@H](O)CC1` [Example 20, 4-[4-(6-aminopyridin-3-yl)-9H-carbazol-9-yl]-2-[(4-trans-hydroxycyclohexyl)amino]benzamide], the IC50 in assay [1] and in assay [2] was less than 1000 nM each time.

As to `CC(C)(C)OC(=O)NCC(=O)O[C@H]1CC[C@H](Nc2cc(-n3c4ccccc4c4c(-c5nc6ccc(F)cc6[nH]5)cccc43)ccc2C(N)=O)CC1` [Example 21, tert-butoxycarbonylaminoacetic acid 4-trans-{2-carbamoyl-5-[4-(6-fluoro-1H-benzimidazol-2-yl)-9H-carbazol-9-yl]phenylamino}cyclohexyl ester], the IC50 in assay [1] was 1000 to 10000 nM; in assay [2], less than 1000 nM.

With `C[C@H](NC(=O)OC(C)(C)C)C(=O)O[C@H]1CC[C@H](Nc2cc(-n3c4ccccc4c4c(-c5nc6ccc(F)cc6[nH]5)cccc43)ccc2C(N)=O)CC1` [Example 22, 2(S)-tert-butoxycarbonylaminopropionic acid 4-trans-{2-carbamoyl-5-[4-(6-fluoro-1H-benzimidazol-2-yl)-9H-carbazol-9-yl]phenylamino}cyclohexyl ester], the concentration for half-maximal inhibition (IC50) was 1000 to 10000 nM in assay [1] and less than 1000 nM in assay [2].

For `CC(C)(C)OC(=O)NCCC(=O)O[C@H]1CC[C@H](Nc2cc(-n3c4ccccc4c4c(-c5nc6ccc(F)cc6[nH]5)cccc43)ccc2C(N)=O)CC1` [Example 23, 3-tert-butoxycarbonylaminopropionic acid 4-trans-{2-carbamoyl-5-[4-(6-fluoro-1H-benzimidazol-2-yl)-9H-carbazol-9-yl]phenylamino}cyclohexyl ester], the values for the concentration for half-maximal inhibition (IC50) in assay [1] and in assay [2] were 1000 to 10000 nM and less than 1000 nM, respectively.

Take `NCCC(=O)O[C@H]1CC[C@H](Nc2cc(-n3c4ccccc4c4c(-c5nc6ccc(F)cc6[nH]5)cccc43)ccc2C(N)=O)CC1` [Example 24, trifluoroacetate of the 4-trans-{2-carbamoyl-5-[4-(6-fluoro-1H-benzimidazol-2-yl)-9H-carbazol-9-yl]phenylamino}cyclohexyl ester of 3-aminopropionic acid]: the 50% inhibitory concentration (IC50) was 1000 to 10000 nM in assay [1] and less than 1000 nM in assay [2].

With `NCC(=O)O[C@H]1CC[C@H](Nc2cc(-n3c4ccccc4c4c(-c5nc6ccc(F)cc6[nH]5)cccc43)ccc2C(N)=O)CC1` [Example 25, trifluoroacetate of the 4-trans-{2-carbamoyl-5-[4-(6-fluoro-1H-benzimidazol-2-yl)-9H-carbazol-9-yl]phenylamino}cyclohexyl ester of aminoacetic acid], the half-inhibitory concentration (IC50) in assay [1] was 1000 to 10000 nM; in assay [2], less than 1000 nM.

Regarding `C[C@H](N)C(=O)O[C@H]1CC[C@H](Nc2cc(-n3c4ccccc4c4c(-c5nc6ccc(F)cc6[nH]5)cccc43)ccc2C(N)=O)CC1` [Example 26, trifluoroacetate of the 4-trans-{2-carbamoyl-5-[4-(6-fluoro-1H-benzimidazol-2-yl)-9H-carbazol-9-yl]phenylamino}cyclohexyl ester of 2(S)-aminopropionic acid], the IC50 in assay [1] and in assay [2] was less than 1000 nM each time.

Turning to `NC(=O)c1ccc(-n2c3ccccc3c3c(-c4ccc(CO)nc4)cccc32)cc1N[C@H]1CC[C@H](O)CC1` [Example 29, 2-[(4-trans-hydroxycyclohexyl)amino]-4-{4-[6-(hydroxymethyl)pyridin-3-yl]-9H-carbazol-9-yl}benzamide], the IC50 in assay [1] and in assay [2] was less than 1000 nM throughout.

On to `NC(=O)c1ccc(-n2c3ccccc3c3c(-c4cnc5ccccc5c4)cccc32)cc1` [Example 30, 4-[4-(quinolin-3-yl)-9H-carbazol-9-yl]benzamide], for which the IC50 in assay [1] and in assay [2] was 1000 to 10000 nM each time.

As for `NC(=O)c1ccc(-n2c3ccccc3c3c(-c4cnc5ccccc5c4)cccc32)cc1NCCCO` [Example 31, 2-(3-hydroxypropyl)amino-4-[4-(quinolin-3-yl)-9H-carbazol-9-yl]benzamide], the half-maximal inhibitory concentration (IC50) in assay [1] and in assay [2] was less than 1000 nM in each case.

As to `CC(O)CCNc1cc(-n2c3ccccc3c3c(-c4cnc5ccccc5c4)cccc32)ccc1C(N)=O` (stereo not drawn) [Example 32, 2-(3-hydroxybutyl)amino-4-[4-(quinolin-3-yl)-9H-carbazol-9-yl]benzamide], the IC50 in assay [1] and in assay [2] was less than 1000 nM each time.

On to `COCCCNc1cc(-n2c3ccccc3c3c(-c4cnc5ccccc5c4)cccc32)ccc1C(N)=O` [Example 33, 2-(3-methoxypropyl)amino-4-[4-(quinolin-3-yl)-9H-carbazol-9-yl]benzamide], for which the IC50 in assay [1] and in assay [2] was less than 1000 nM throughout.

For `NC(=O)CCNc1cc(-n2c3ccccc3c3c(-c4cnc5ccccc5c4)cccc32)ccc1C(N)=O` [Example 34, 2-(2-carbamoylethylamino)-4-[4-(quinolin-3-yl)-9H-carbazol-9-yl]benzamide], the 50% inhibitory concentration (IC50) in assay [1] and in assay [2] was less than 1000 nM throughout.

For `COCCCNc1cc(-n2c3ccccc3c3c(-c4nc5ccc(F)cc5[nH]4)cccc32)ccc1C(N)=O` [Example 38, 4-[4-(6-fluoro-1H-benzimidazol-2-yl)-9H-carbazol-9-yl]-2-(3-methoxypropylamino)benzamide], the IC50 in assay [1] and in assay [2] was less than 1000 nM each time.

With `NC(=O)c1ccc(-n2c3ccccc3c3c(-c4nc5ccc(F)cc5[nH]4)cccc32)cc1NCCO` [Example 42, 4-[4-(6-fluoro-1H-benzimidazol-2-yl)-9H-carbazol-9-yl]-2-(2-hydroxyethylamino)benzamide], the IC50 in assay [1] and in assay [2] was less than 1000 nM in each case.

In the case of `CN(C)CCNc1cc(-n2c3ccccc3c3c(-c4nc5ccc(F)cc5[nH]4)cccc32)ccc1C(N)=O` [Example 43, 2-(2-dimethylaminoethylamino)-4-[4-(6-fluoro-1H-benzimidazol-2-yl)-9H-carbazol-9-yl]benzamide], the 50% inhibitory concentration (IC50) in assay [1] and in assay [2] was less than 1000 nM throughout.
